Consider 27 molecules from patent US20240376091A1, “THIADIAZOLEAMIDE DERIVATIVES AND THEIR APPLICATIONS” (ZHEJIANG UNIVERSITY, priority 2021, published 2024).

In the assay the target is T1, AR (Homo sapiens, UniProt P10275, T878A).
T1 construct: into the androgen-dependent PCa cells (LNCaP); endogenous in cells; host or cells: LNCaP-ARR2PB-eGFP
T1 sequence (P10275 1-920 T878A): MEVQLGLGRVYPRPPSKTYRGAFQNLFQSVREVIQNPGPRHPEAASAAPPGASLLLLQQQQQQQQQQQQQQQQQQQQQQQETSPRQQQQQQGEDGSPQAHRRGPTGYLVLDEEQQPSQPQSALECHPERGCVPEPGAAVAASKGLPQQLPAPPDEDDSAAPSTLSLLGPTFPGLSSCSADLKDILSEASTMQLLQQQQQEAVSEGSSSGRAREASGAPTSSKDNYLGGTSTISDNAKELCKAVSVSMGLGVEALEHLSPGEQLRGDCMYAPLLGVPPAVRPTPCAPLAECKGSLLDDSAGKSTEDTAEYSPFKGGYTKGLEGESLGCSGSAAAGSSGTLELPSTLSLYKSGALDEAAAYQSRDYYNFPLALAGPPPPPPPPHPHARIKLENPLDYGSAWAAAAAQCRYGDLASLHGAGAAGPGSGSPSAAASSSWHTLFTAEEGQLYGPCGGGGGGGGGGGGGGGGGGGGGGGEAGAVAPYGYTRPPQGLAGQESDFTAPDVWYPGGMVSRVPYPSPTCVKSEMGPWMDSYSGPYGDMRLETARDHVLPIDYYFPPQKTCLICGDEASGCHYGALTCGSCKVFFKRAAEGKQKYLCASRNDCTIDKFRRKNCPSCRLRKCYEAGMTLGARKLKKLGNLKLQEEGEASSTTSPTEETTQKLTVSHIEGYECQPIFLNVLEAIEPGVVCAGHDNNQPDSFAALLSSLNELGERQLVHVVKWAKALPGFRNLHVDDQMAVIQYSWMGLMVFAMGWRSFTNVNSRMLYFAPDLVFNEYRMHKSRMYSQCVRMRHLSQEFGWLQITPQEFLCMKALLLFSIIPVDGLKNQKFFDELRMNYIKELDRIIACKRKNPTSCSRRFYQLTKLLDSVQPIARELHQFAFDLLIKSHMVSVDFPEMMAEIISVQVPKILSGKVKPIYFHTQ
The experiment in a line: AR transcriptional activity, LNCaP-ARR2PB-eGFP reporter cells. The class given is cell-based. The conditions noted are these: read-out: IC50 AR transcriptional activities. The text has this: Detection principles: We conducted a stable transfection of promoter ARR2PB known for its strong AR responsiveness, into the androgen-dependent PCa cells (LNCaP). The expression of enhanced green fluorescent protein (eGFP) is depending on the degree of activation of AR. Therefore, LNCaP-ARR2PB-eGFP cell line could quantitatively determine the AR antagonistic activities of the compounds by evaluating the expression of eGFP.
Turning to `CC(=O)Cc1nsc(NC(=O)c2cc(-c3cccc(OC(F)(F)F)c3)oc2C(F)(F)F)n1` [Compound E-4, N-(3-(2-oxopropyl)-1,2,4-thiadiazol-5-yl)-5-(3-(trifluoromethoxy)phenyl)-2-(trifluoro-methyl)furan-3-carboxamide], the IC50 (usually the midpoint of a concentration-inhibition curve) was 0.55 µM.

Turning to `CC(=O)Cc1nsc(NC(=O)c2cc(-c3cccc(OC(F)F)c3)oc2C(F)(F)F)n1` [Compound E-5, 5-(3-(Difluoromethoxy)phenyl)-N-(3-(2-oxopropyl)-1,2,4-thiadiazol-5-yl)-2-(trifluoro-methyl)furan-3-carboxamide], the concentration for half-maximal inhibition (IC50) is 1.48 µM.

As to `CC(Cc1nsc(NC(=O)c2cc(-c3cccc(C(F)(F)F)c3)oc2C(F)(F)F)n1)N1CCCC1` (stereo not drawn) [Compound E-6, N-(3-(2-(pyrrolidin-1-yl)propyl)-1,2,4-thiadiazol-5-yl)-2-(trifluoromethyl)-5-(3-(trifluoromethyl)phenyl) furan-3-carboxamide], the IC50 turned out to be 3.38 µM.

Regarding `CC(Cc1nsc(NC(=O)c2cc(-c3cccc(C#N)c3)oc2C(F)(F)F)n1)N1CCOCC1` (stereo not drawn) [Compound E-8, 5-(3-Cyanophenyl)-N-(3-(2-morpholinopropyl)-1,2,4-thiadiazol-5-yl)-2-(trifluoromethyl)furan-3-carboxamide], the IC50 turned out to be 7.54 µM.

Consider `COc1cccc(-c2cc(C(=O)Nc3nc(CC(C)N4CCCCC4)ns3)c(C(F)(F)F)o2)c1` (stereo not drawn) [Compound E-9, 5-(3-Methoxyphenyl)-N-(3-(2-(piperidin-1-yl)propyl)-1,2,4-thiadiazol-5-yl)-2-(trifluoro-methyl)furan-3-carboxamide], for which the IC50 was 5.29 µM.

As for `CC(Cc1nsc(NC(=O)c2cc(-c3cccc(OC(F)(F)F)c3)oc2C(F)(F)F)n1)N1CCOCC1` (stereo not drawn) [Compound E-10, N-(3-(2-morpholinopropyl)-1,2,4-thiadiazol-5-yl)-5-(3-(trifluoromethoxy)phenyl)-2-(trifluoromethyl)furan-3-carboxamide], the half-inhibitory concentration (IC50) was determined as 0.99 µM.

With `CC(Cc1nsc(NC(=O)c2cc(-c3cccc(OC(F)F)c3)oc2C(F)(F)F)n1)N1CCN(C)CC1` (stereo not drawn) [Compound E-11, 5-(3-(Difluoromethoxy)phenyl)-N-(3-(2-(4-methylpiperazin-1-yl)propyl)-1,2,4-thiadiazol-5-yl)-2-(trifluoromethyl)furan-3-carboxamide], the half-inhibitory concentration (IC50) stood at 0.97 µM.

For the molecule `CC(O)Cc1nsc(NC(=O)c2cc(-c3cccc(C(F)(F)F)c3)oc2C(F)(F)F)n1` (stereo not drawn) [Compound E-12, N-(3-(2-hydroxypropyl)-1,2,4-thiadiazol-5-yl)-2-(trifluoromethyl)-5-(3-(trifluoromethyl)phenyl)furan-3-carboxamide], the IC50 was 1.57 µM.

Take `CC(O)(Cc1nsc(NC(=O)c2cc(-c3cccc(C(F)(F)F)c3)oc2C(F)(F)F)n1)C(F)(F)F` (stereo not drawn) [Compound E-17, N-(3-(3,3,3-trifluoro-2-hydroxy-2-methylpropyl)-1,2,4-thiadiazol-5-yl)-2-(trifluoromethyl)-5-(3-(trifluoromethyl)phenyl)furan-3-carboxamide]: the half-maximal inhibitory concentration (IC50) was 0.79 µM.

Take `CC(Cc1nsc(NC(=O)c2cc(-c3cccc(C(F)(F)F)c3)oc2C(F)(F)F)n1)=C(F)F` [Compound E-22, N-(3-(3,3-difluoro-2-methylallyl)-1,2,4-thiadiazol-5-yl)-2-(trifluoromethyl)-5-(3-(trifluoromethyl)phenyl) furan-3-carboxamide]: the IC50 worked out at 1.46 µM.

As to `CC(F)(F)Cc1nsc(NC(=O)c2cc(-c3cccc(C(F)(F)F)c3)oc2C(F)(F)F)n1` [Compound E-27, N-(3-(2,2-difluoropropyl)-1,2,4-thiadiazol-5-yl)-2-(trifluoromethyl)-5-(3-(trifluoromethyl)phenyl) fura n-3-carboxamide], the IC50 stood at 0.95 µM.

In the case of `O=C(Nc1nc(CCl)ns1)c1cc(-c2cccc(C(F)(F)F)c2)oc1C(F)(F)F` [Compound E-32, N-(3-(chloromethyl)-1,2,4-thiadiazol-5-yl)-2-(trifluoromethyl)-5-(3-(trifluoromethyl)phenyl)furan-3-carboxamide], the IC50 is 1.32 µM.

As to `CN1CCN(Cc2nsc(NC(=O)c3cc(-c4cccc(C#N)c4)oc3C(F)(F)F)n2)CC1` [Compound E-38, 5-(3-Cyanophenyl)-N-(3-((4-methylpiperazin-1-yl)methyl)-1,2,4-thiadiazol-5-yl)-2-(trifluoromethyl)furan-3-carboxamide], the IC50 was found to be 1.45 µM.

Take `COc1cccc(-c2cc(C(=O)Nc3nc(CN4CCOCC4)ns3)c(C(F)(F)F)o2)c1` [Compound E-39, 5-(3-Methoxyphenyl)-N-(3-(morpholinomethyl)-1,2,4-thiadiazol-5-yl)-2-(trifluoromethyl)furan-3-carboxamide]: the IC50 is 2.19 µM.

Take `O=C(Nc1nc(CN2CCCC2)ns1)c1cc(-c2cccc(OC(F)(F)F)c2)oc1C(F)(F)F` [Compound E-40, N-(3-(pyrrolidin-1-ylmethyl)-1,2,4-thiadiazol-5-yl)-5-(3-(trifluoromethoxy)phenyl)-2-(trifluoromethyl)furan-3-carboxamide]: the IC50 came to 2.92 µM.

With `O=C(Nc1nc(CN2CCCCC2)ns1)c1cc(-c2cccc(OC(F)F)c2)oc1C(F)(F)F` [Compound E-41, 5-(3-(Difluoromethoxy)phenyl)-N-(3-(piperidin-1-ylmethyl)-1,2,4-thiadiazol-5-yl)-2-(trifluoromethyl)furan-3-carboxamide], the IC50 was determined as 0.89 µM.

As to `CC(=O)Cc1nsc(NC(=O)c2cc(-c3cccc(C(F)(F)F)c3)c(C)o2)n1` [Compound F-1, 5-Methyl-N-(3-(2-oxopropyl)-1,2,4-thiadiazol-5-yl)-4-(3-(trifluoromethyl)phenyl)furan-2-carboxamide], the IC50 was 28.1 µM.

With `CC(=O)Cc1nsc(NC(=O)c2cc(-c3cccc(C#N)c3)c(C)o2)n1` [Compound F-2, 4-(3-Cyanophenyl)-5-methyl-N-(3-(2-oxopropyl)-1,2,4-thiadiazol-5-yl)furan-2-carboxamide], the IC50 was found to be 34.3 µM.

With `COc1cccc(-c2cc(C(=O)Nc3nc(CC(C)=O)ns3)oc2C)c1` [Compound F-3, 4-(3-Methoxyphenyl)-5-methyl-N-(3-(2-oxopropyl)-1,2,4-thiadiazol-5-yl)furan-2-carboxamide], the concentration for half-maximal inhibition (IC50) was found to be 22.4 µM.

Take `CC(=O)Cc1nsc(NC(=O)c2cc(-c3cccc(OC(F)(F)F)c3)c(C)o2)n1` [Compound F-4, 5-Methyl-N-(3-(2-oxopropyl)-1,2,4-thiadiazol-5-yl)-4-(3-(trifluoromethoxy)phenyl)furan-2-carboxamide]: the IC50 turned out to be 35.7 µM.

As to `CC(=O)Cc1nsc(NC(=O)c2cc(-c3cccc(OC(F)F)c3)c(C)o2)n1` [Compound F-5, 4-(3-(Difluoromethoxy)phenyl)-5-methyl-N-(3-(2-oxopropyl)-1,2,4-thiadiazol-5-yl)furan-2-carboxamide], the IC50 is 12.6 µM.

Turning to `Cc1oc(C(=O)Nc2nc(CC(C)N3CCCC3)ns2)cc1-c1cccc(C(F)(F)F)c1` (stereo not drawn) [Compound F-6], the IC50 is 17.9 µM.

With `Cc1oc(C(=O)Nc2nc(CC(C)N3CCCCC3)ns2)cc1-c1cccc(C#N)c1` (stereo not drawn) [Compound F-7, 4-(3-Cyanophenyl)-5-methyl-N-(3-(2-(piperidin-1-yl)propyl)-1,2,4-thiadiazol-5-yl)furan-2-carboxamide], the IC50 turned out to be 14 µM.

`COc1cccc(-c2cc(C(=O)Nc3nc(CC(C)N4CCOCC4)ns3)oc2C)c1` (stereo not drawn) [Compound F-8, 4-(3-Methoxyphenyl)-5-methyl-N-(3-(2-morpholinopropyl)-1,2,4-thiadiazol-5-yl)furan-2-carboxamide]: the concentration for half-maximal inhibition (IC50) came out at 17.6 µM.

As for `Cc1oc(C(=O)Nc2nc(CC(C)N3CCOCC3)ns2)cc1-c1cccc(OC(F)(F)F)c1` (stereo not drawn) [Compound F-9, 5-Methyl-N-(3-(2-morpholinopropyl)-1,2,4-thiadiazol-5-yl)-4-(3-(trifluoromethoxy)phenyl)furan-2-carboxamide], the half-maximal inhibitory concentration (IC50) amounted to 23.5 µM.

On to `Cc1oc(C(=O)Nc2nc(CC(C)N3CCN(C)CC3)ns2)cc1-c1cccc(OC(F)F)c1` (stereo not drawn) [Compound F-10, 4-(3-(Difluoromethoxy)phenyl)-5-methyl-N-(3-(2-(4-methylpiperazin-1-yl)propyl)-1,2,4-thiadiazol-5-yl)furan-2-carboxamide], for which the IC50 was 27.1 µM.

`Cc1oc(C(=O)Nc2nc(CC(C)O)ns2)cc1-c1cccc(C(F)(F)F)c1` (stereo not drawn) [Compound F-11, N-(3-(2-hydroxypropyl)-1,2,4-thiadiazol-5-yl)-5-methyl-4-(3-(trifluoromethyl)phenyl) furan-2-carboxamide]: the IC50 was determined as 22.3 µM.
